The results in this text go back to ChEMBL document CHEMBL5126521, “Analgesic Opioid Ligand Discovery Based on Nonmorphinan Scaffolds Derived from Natural Sources” (J Med Chem, 2022).

Bridge positions count the residues as written; N and C are the ends. Square brackets hold non-standard residues; d marks the D form. Peptide text beside a SMILES is read from it. ξ: configuration not given here. d1Nal = N[C@H](Cc1cccc2ccccc12)C(=O)O; d2Nal = N[C@H](Cc1ccc2ccccc2c1)C(=O)O; Dmt = Cc1cc(O)cc(C)c1C[C@H](N)C(=O)O; ξGly(octyl) = CCCCCCCCC(N)C(=O)O

The subject of data set [1] is Mus musculus. Nature of the data set: Antinociceptive activity in icv dosed C57BL/6J mouse assessed as tail withdrawal latency from warm water. In kind it is functional.
Data set [2] has as its target Delta-type opioid receptor (Mus musculus, UniProt P32300). Put plainly: Displacement of [3H]DPDPE from mouse DOP stably expressed in CHO cell membrane. It is filed as cell membranes.
The target of data set [3] is T1, Mu-type opioid receptor (Homo sapiens, UniProt P35372). Nature of the data set: Antagonist activity at human MOP stably expressed in CHO cell membrane assessed as [35S]GTPgammaS binding. In kind it is functional, cell membranes. In general terms: Binding of GTPγS marks nucleotide exchange on a G protein.
Data set [4] deals with T2, Mu-type opioid receptor (Rattus norvegicus, UniProt P33535). Nature of the data set: Displacement of [3H]DAMGO from rat MOP stably expressed in CHO cell membrane. It is filed as cell membranes. For orientation: Loss of bound radioactivity is the signal in a displacement assay; it reports binding, not function.
Data set [5] concerns the target T3, Kappa-type opioid receptor (Rattus norvegicus, UniProt P34975). Put plainly: Displacement of [3H]diprenorphine from rat KOP stably expressed in CHO cell membrane. In kind it is cell membranes.
Data set [6] deals with T4, Kappa-type opioid receptor (Homo sapiens, UniProt P41145). Put plainly: Antagonist activity at human KOP stably expressed in CHO cell membrane assessed as [35S]GTPgammaS binding. It is filed as functional, cell membranes.
For data set [7], the system named is Mus musculus. Put plainly: Antinociceptive activity in Swiss albino mouse assessed tail flick response in warm water administered icv. In kind it is functional.
For data set [8], the target named is T3, Kappa-type opioid receptor. Put plainly: Displacement of [3H]-norBNI from Wistar rat brain membrane KOP. In kind it is cell membranes.
The target in data set [9] is T4, Kappa-type opioid receptor. Put plainly: Binding affinity to human KOP stably expressed in CHO cell membrane assessed as [35S]GTPgammaS binding. To be noted: filed as antagonist. In kind it is cell membranes.
The subject of data set [10] is Mus musculus. Nature of the data set: Antinociceptive activity in po dosed mouse by tail flick assay. In kind it is functional. (Hot-plate and tail-flick tests time the reaction to a heat stimulus.)
The nature of data set [11]: Displacement of [3H]DPDPE from guinea pig brain membrane DOP incubated for 2.5 hr by scintillation counter analysis. It is filed as cell membranes, Cavia porcellus.
Data set [12] concerns the target T5, Mu-type opioid receptor (Cavia porcellus, UniProt P97266). Put plainly: Displacement of [3H]DAMGO from guinea pig brain membrane MOP incubated for 1 hr by scintillation counter analysis. In kind it is cell membranes.
Data set [13] has as its system Mus musculus. Nature of the data set: Antinociceptive activity in sc dosed mouse. In kind it is functional.
Data set [14] in a line: Toxicity in sc dosed mouse assessed as antinociceptive activity tolerance. To be noted: in vivo. In kind it is organism-based.
Data set [15] is described as follows: Toxicity in po dosed mouse assessed as antinociceptive activity tolerance by tail flick assay. In kind it is organism-based. To be noted: in vivo.
Data set [16] deals with T6, Delta-type opioid receptor (Rattus norvegicus, UniProt P33533). Put plainly: Agonist activity at recombinant rat DOP stably expressed in CHO-K1 cell membrane assessed as [35S]GTPgammaS binding. In kind it is functional, cell membranes.
Data set [17] deals with Kappa-type opioid receptor (Cavia porcellus, UniProt P41144). Nature of the data set: Displacement of [3H]U69593 from guinea pig brain membrane KOP incubated for 1 hr by scintillation counter analysis. It is filed as cell membranes.
In data set [18] the target is T2, Mu-type opioid receptor. Put plainly: Agonist activity at recombinant rat MOP stably expressed in CHO-K1 cell membrane assessed as [35S]GTPgammaS binding. It is filed as functional, cell membranes.
For data set [19], the system named is Mus musculus. Put plainly: Antinociceptive activity in Kunming mouse assessed as heat paw withdrawal measured after 10 secs administered icv. It is filed as functional. To be noted: time 10 sec, 10 s.
The target of data set [20] is Delta-type opioid receptor (Homo sapiens, UniProt P41143). Nature of the data set: Binding affinity to DOP (unknown origin).
Data set [21] can be described thus: Stability in rat brain homogenate assessed as half life. In kind it is ADME, tissue-based.
A short description of data set [22]: Stability in mouse serum assessed as half life. In kind it is ADME, cell-free.
The target of data set [23] is T1, Mu-type opioid receptor. Put plainly: Binding affinity to MOP (unknown origin).
The target in data set [24] is T1, Mu-type opioid receptor. Put plainly: Agonist activity at MOP in human SH-SY5Y cells assessed as forskolin stimulated cAMP accumulation incubated for 30 mins by Biotrak-EIA kit method. It is filed as functional, cell-based.
The subject of a further data set is Rattus norvegicus. Put plainly: Antinociceptive activity in Sprague-Dawley rat assessed as tail flick response in warm water administered iv. It is filed as functional.
Data set [25] deals with Mus musculus. Nature of the data set: Antinociceptive activity in mouse administered icv. It is filed as functional.
The species named for data set [26] is Mus musculus. Put plainly: Antinociceptive activity in mouse by tail pressure test. In kind it is functional.
The test system of data set [27] is Mus musculus. Put plainly: Antinociceptive activity in mouse administered IT by tail pressure test. It is filed as functional.
The target in data set [28] is T5, Mu-type opioid receptor. Put plainly: Antagonist activity at guinea pig ileum MOP. It is filed as functional, tissue-based.
Data set [29] is described as follows: Degradation half life in rat brain homogenate. It is filed as ADME, tissue-based.
The target of data set [30] is T3, Kappa-type opioid receptor. Put plainly: Inhibition of Wistar rat brain membrane KOP. It is filed as cell membranes.
The target in data set [31] is T6, Delta-type opioid receptor. Put plainly: Inhibition of Wistar rat brain membrane DOP. In kind it is cell membranes.
For data set [32], the target named is T1, Mu-type opioid receptor. Nature of the data set: Agonist activity at human recombinant MOP expressed in CHO cells by calcium mobilization assay. It is filed as functional, cell-based.
The target of data set [33] is T2, Mu-type opioid receptor. Put plainly: Inhibition of Wistar rat brain membrane MOP. In kind it is cell membranes.

T3 sequence (P34975 whole entry): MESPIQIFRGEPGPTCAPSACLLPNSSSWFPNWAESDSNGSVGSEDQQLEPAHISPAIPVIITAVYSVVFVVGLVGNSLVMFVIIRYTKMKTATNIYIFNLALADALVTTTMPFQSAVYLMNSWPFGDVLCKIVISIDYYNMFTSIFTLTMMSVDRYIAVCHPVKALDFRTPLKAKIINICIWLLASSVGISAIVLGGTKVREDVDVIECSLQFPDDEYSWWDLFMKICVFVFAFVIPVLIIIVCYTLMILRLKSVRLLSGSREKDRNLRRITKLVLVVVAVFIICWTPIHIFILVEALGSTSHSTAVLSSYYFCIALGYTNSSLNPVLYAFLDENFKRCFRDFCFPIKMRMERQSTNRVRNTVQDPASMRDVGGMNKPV
T1 sequence (P35372 whole entry): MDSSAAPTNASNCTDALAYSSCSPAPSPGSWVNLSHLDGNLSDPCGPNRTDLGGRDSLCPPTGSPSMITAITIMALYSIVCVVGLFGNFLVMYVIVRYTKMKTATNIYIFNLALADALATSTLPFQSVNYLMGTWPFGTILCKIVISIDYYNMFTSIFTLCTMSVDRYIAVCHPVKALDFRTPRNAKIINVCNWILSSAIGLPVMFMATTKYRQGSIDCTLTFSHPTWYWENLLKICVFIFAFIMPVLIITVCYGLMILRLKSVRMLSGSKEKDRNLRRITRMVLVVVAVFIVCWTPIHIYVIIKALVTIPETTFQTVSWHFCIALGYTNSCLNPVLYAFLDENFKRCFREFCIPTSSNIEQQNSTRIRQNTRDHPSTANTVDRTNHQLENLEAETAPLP
T4 sequence (P41145 whole entry): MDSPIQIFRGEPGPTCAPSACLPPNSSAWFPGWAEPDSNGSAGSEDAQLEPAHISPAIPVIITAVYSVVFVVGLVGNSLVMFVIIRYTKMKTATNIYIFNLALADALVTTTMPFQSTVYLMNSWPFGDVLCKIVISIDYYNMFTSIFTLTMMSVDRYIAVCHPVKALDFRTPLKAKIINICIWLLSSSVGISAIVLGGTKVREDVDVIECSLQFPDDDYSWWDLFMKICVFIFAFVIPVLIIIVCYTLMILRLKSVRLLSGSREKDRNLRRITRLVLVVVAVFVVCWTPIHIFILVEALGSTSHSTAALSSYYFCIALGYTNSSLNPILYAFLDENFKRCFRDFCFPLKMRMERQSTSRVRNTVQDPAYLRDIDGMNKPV
T2 sequence (P33535 whole entry): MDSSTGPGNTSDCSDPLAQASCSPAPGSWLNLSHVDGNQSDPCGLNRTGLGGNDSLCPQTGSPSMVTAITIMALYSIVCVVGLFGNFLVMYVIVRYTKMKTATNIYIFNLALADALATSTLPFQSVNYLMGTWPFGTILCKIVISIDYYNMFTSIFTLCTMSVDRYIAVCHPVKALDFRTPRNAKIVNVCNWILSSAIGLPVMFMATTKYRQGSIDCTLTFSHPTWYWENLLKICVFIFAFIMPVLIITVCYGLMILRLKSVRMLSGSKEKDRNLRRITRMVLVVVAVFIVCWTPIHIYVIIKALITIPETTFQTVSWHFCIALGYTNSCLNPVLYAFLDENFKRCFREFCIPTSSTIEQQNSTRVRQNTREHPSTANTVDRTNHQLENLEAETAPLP
T6 sequence (P33533 whole entry): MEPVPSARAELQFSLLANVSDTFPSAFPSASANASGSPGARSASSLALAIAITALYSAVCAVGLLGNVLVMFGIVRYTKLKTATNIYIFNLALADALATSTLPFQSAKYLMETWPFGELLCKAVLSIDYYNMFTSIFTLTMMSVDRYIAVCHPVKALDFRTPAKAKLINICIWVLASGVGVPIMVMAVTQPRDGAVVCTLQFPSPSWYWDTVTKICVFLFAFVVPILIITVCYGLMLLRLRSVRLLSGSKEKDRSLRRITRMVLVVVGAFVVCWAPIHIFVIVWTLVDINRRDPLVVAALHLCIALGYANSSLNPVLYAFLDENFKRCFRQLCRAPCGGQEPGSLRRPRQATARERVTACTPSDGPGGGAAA
T5 sequence (P97266 whole entry): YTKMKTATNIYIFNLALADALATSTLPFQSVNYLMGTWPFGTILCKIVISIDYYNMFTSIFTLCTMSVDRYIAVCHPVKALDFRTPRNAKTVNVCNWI
Delta-type opioid receptor (Mus musculus, UniProt P32300), sequence (P32300 whole entry): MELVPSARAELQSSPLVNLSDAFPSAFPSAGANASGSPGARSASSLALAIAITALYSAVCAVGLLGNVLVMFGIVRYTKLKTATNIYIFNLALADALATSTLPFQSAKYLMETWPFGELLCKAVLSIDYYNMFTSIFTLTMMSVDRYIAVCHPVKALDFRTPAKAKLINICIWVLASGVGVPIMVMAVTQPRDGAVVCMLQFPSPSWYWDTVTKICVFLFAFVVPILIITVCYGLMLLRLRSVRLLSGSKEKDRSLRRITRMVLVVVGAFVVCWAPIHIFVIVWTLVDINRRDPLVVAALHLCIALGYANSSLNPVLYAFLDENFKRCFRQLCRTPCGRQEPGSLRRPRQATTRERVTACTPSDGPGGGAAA
Delta-type opioid receptor (Homo sapiens, UniProt P41143), sequence (P41143 whole entry): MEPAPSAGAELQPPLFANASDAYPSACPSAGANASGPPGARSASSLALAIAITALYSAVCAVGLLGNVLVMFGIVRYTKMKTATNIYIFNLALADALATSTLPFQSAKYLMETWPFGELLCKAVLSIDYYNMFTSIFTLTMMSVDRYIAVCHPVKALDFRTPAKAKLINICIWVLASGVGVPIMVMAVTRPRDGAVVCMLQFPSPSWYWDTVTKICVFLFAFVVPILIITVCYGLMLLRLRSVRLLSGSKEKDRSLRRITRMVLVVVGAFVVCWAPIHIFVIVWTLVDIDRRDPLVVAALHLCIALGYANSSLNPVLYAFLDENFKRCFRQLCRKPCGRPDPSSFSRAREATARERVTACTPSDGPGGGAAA
Kappa-type opioid receptor (Cavia porcellus, UniProt P41144), sequence (P41144 whole entry): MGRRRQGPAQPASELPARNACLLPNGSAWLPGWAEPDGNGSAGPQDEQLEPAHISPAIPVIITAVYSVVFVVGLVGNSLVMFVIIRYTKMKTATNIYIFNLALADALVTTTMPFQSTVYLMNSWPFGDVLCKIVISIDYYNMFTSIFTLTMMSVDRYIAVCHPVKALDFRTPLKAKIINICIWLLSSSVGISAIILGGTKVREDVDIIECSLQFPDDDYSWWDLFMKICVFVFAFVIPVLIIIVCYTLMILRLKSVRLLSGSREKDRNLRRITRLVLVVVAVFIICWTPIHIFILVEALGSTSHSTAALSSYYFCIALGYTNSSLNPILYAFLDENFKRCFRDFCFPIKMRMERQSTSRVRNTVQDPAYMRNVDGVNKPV

In general, Ki refers to the equilibrium dissociation constant of an inhibitor or competing ligand from its target. A lower Ki goes with tighter binding. In general, IC50 refers to the midpoint of a concentration-inhibition curve. As to `C[C@@H]1NC(=O)[C@H]2CCCN2C(=O)[C@H](Cc2ccccc2)NC(=O)[C@@H](Cc2c[nH]c3ccccc23)NC1=O`, the ED50 with Mus musculus [1] turned out to be 1.04 nmol. In addition, the Ki is 10000 nM in data set [2], 299 nM at Mu-type opioid receptor [4] and 167 nM in data set [5]. For the same compound, the IC50 at Mu-type opioid receptor [3] came to 1470 nM; in data set [6], 397 nM.

Compound `Cc1cc(O)cc(C)c1C[C@H](N)C(=O)N[C@@H]1CCCCNC(=O)C[C@@H](C(N)=O)NC(=O)[C@@H](Cc2ccc3ccccc3c2)NC(=O)[C@H](Cc2ccccc2)NC1=O` (H-[Dmt][dK]F[d2Nal]D-NH2; lactam 2-5) yielded an ED50 in the data set with Mus musculus [7] of 0.08 µg. For the same compound, in data set [8], the Ki amounted to 1.02 nM.

The Kb is the equilibrium dissociation constant of an antagonist, usually derived from a functional assay. Take `C[C@@H]1C(=O)N[C@@H](Cc2ccccc2)C(=O)N[C@H](Cc2c[nH]c3ccccc23)C(=O)N[C@@H](Cc2ccccc2)C(=O)N1C`: the ED50 in the data set on Mus musculus [1] amounted to 4.19 nmol. Further, on Mu-type opioid receptor [3], the IC50 was found to be 321 nM. Further, the inhibition constant (Ki) on Mu-type opioid receptor [4] was determined as 257 nM; in data set [5], 76.9 nM. Besides, the antagonist equilibrium constant (Kb) in [9] was 103 nM.

Broadly, the EC50 is the concentration that produces a half-maximal response. As to `CC[C@@H]1CN2CC[C@]3(O)c4c(cccc4OC)N[C@@H]3[C@@H]2C[C@@H]1/C(=C\OC)C(=O)OC`, the ED50 with Mus musculus [10] was 1.3 mg/kg; with Mus musculus [13], 0.3 mg/kg; in data set [14], 0.35 mg/kg; in data set [15], 2.2 mg/kg. In addition, the inhibition constant Ki was 16 nM in data set [11], 6.4 nM at Mu-type opioid receptor [12] and 55 nM in [17]. In addition, the concentration giving a half-maximal response (EC50) in [16] worked out at 1490 nM; at Mu-type opioid receptor [18], 250 nM.

For orientation: half-life means the time needed for the level to fall by half in the phase considered. As to `CC(C)(C)OC(=O)[C@H](Cc1ccccc1)NC(=O)[C@H](Cc1ccccc1)NC(=O)[C@@H]1CCCN1C(=O)[C@@H](N)Cc1ccc(O)cc1`, the ED50 in the data set with Mus musculus [19] stood at 3.2 nmol. Also, the inhibition constant Ki came out at 247 nM in [20] and 50.3 nM on Mu-type opioid receptor [23]. The values for the half-life in data set [21] and in [22] were 1.2 h and 0.767 h, respectively.

For `CCCCCCCCC(N)C(=O)N[C@@H](Cc1ccc(O)cc1)C(=O)N1CCC[C@H]1C(=O)N[C@@H](Cc1c[nH]c2ccccc12)C(=O)N[C@@H](Cc1ccccc1)C(N)=O` (stereo partly specified) (H-[ξGly(octyl)]YPWF-NH2), the EC50 on Mu-type opioid receptor [24] was 31.4 nM. Moreover, the ED50 in the data set with Rattus norvegicus was 1.2 µmol/kg.

`Cc1cc(O)cc(C)c1C[C@H](N)C(=O)N[C@@H]1CCCCNC(=O)C[C@@H](C(N)=O)NC(=O)[C@@H](Cc2cccc3ccccc23)NC(=O)[C@H](Cc2ccccc2)NC1=O` (H-[Dmt][dK]F[d1Nal]D-NH2; lactam 2-5) displayed an ED50 in the data set with Mus musculus [7] of 0.06 µg. In [8], this compound displayed a Ki of 1.78 nM.

Regarding `N=C(N)NCCC[C@@H](NC(=O)[C@@H](N)Cc1ccc(O)cc1)C(=O)N[C@@H](Cc1ccccc1)C(=O)NCC(=O)O` (H-Y[dR]FG-OH), the ED50 in the data set with Mus musculus [25] is 10.3 pmol; in the data set filed under Mus musculus [26], 5.8 pmol; in the data set on Mus musculus [27], 1 pmol. The compound further displayed a half-maximal inhibitory concentration (IC50) against Mu-type opioid receptor [28] of 10.8 nM.

On to `C[C@H]1NC(=O)[C@H](Cc2ccccc2)NC(=O)[C@H]2CCCN2C(=O)[C@H](Cc2ccccc2)NC1=O`, for which the ED50 with Mus musculus [1] worked out at 0.28 nmol. The inhibition constant Ki in [2] was 10000 nM; in [5] it was 1720 nM. Further, the IC50 amounted to 1100 nM at Mu-type opioid receptor [3] and 922 nM in [6].

`Cc1cc(O)cc(C)c1C[C@H](N)C(=O)N1Cc2ccccc2C[C@H]1C(=O)N[C@@H](Cc1ccccc1)[C@@H](O)C(=O)N[C@@H](Cc1ccccc1)C(N)=O` registered a half-life in [29] of 2 h.

`CCNC(=O)C[C@H](NC(=O)[C@H](Cc1ccccc1)NC(=O)[C@H](Cc1ccccc1)NC(=O)[C@@H](CCCCNC(=O)C[C@H](NC(=O)[C@H](Cc1ccccc1)NC(=O)[C@H](Cc1ccccc1)NC(=O)CNC(=O)[C@@H](N)Cc1ccc(O)cc1)C(N)=O)NC(=O)[C@@H](N)Cc1ccc(O)cc1)C(N)=O` registered an ED50 in the data set with Mus musculus [7] of 1.96 nmol. Also, the concentration for half-maximal inhibition (IC50) was 32 nM in [30], more than 1000 nM in data set [31] and 26.2 nM against Mu-type opioid receptor [33]. In addition, the EC50 at Mu-type opioid receptor [32] was found to be 5.01 nM.
